Results as given in patent publication US20260133203A1, “DETECTION OF FUMARATE-DERIVED MODIFICATION IN A TEST SAMPLE” (UNIVERSITY OF SOUTH CAROLINA, priority 2017, published 2026).
Where a name gives a salt, the structure may show the parent alone.

System: primary rat astrocytes
Test: LC-MS/MS identification of succinated proteins in primary rat astrocytes
Format: cell-based
Conditions: 24 hours treatment with up to 100 μM DMF
Protocol: Primary astrocytes were isolated and cultured from neonatal P1-P2 Sprague-Dawley rats. Animals were decapitated following which cortices, brainstem, and hippocampi were aseptically dissected in petri dishes filled with ice-cold Hanks' Balanced Salt Solution (Corning® HBSS; Sigma, St. Louis, MO), HEPES (10 mM; Sigma), and gentamicin sulfate (5 μg/mL; Life Technologies, Carlsbad, CA). The dissected tissue was cut into pieces and dissociated by trypsin treatment (10 μl/mL; Life Technologies, Carlsbad, CA), followed by trituration with sterile glass pipettes. Cells were plated in 24-well plates pre-coated with poly-l-lysine (50 μg/mL; Sigma). Cultures were maintained in DMEM/F12 (Life Technologies) medium supplemented with 10% fetal bovine serum (FBS) and stored in an incubator at 37° C. ([…]). […] After gel extraction, the peptides were re-suspended in 1% acetic acid and analyzed on a DionexTM […] system (Thermo ScientificTM, Rockford, IL) coupled to an Orbitrap Velos ProTM mass spectrometer (Thermo ScientificTM, Rockford, IL). […] The data-dependent acquisition (DDA) data were analyzed using Proteome DiscovererTM 1.4 software with SEQUEST search engine against the uniprot_ref_mouse database (2014-10-03 version, 52,474 proteins) or uniprot_ref_rat database (2011-5-11 version, 39765 proteins) with Xcorr>1 validation (+2) and an allowance for 2 missed cleavages. […]

Structure (SMILES): COC(=O)/C=C/C(=O)OC [DMF, dimethyl fumarate]
- number of succinated protein subunits detected: 11
